Laboratory results as given in patent US20120010179A1, “Methods of using a thiazole derivative” (priority 2006, published 2012).

System: patients with COPD
Experiment: Pulmonary function tests (spirometry FEV1, FVC), tetomilast with inhaled albuterol, crossover study (Example 1)
Format: in vivo, human
Settings: for Estimated Treatment Effect, change from baseline in FEV1 (tetomilast versus placebo) / Estimated Treatment Effect, change from baseline in FVC (tetomilast versus placebo) / LS Mean change from baseline in FEV1 (repeated measures ANOVA) / LS Mean change from baseline in FVC (repeated measures ANOVA) / Mean (SD) change from baseline in FEV1 / Mean (SD) change from baseline in FVC: Baseline (Day 0); for Estimated Treatment Effect, change from baseline in FEV1 (tetomilast versus placebo) / Estimated Treatment Effect, change from baseline in FVC (tetomilast versus placebo): both with inhaled albuterol; for LS Mean change from baseline in FEV1 (repeated measures ANOVA) / LS Mean change from baseline in FVC (repeated measures ANOVA) / Mean (SD) change from baseline in FEV1 / Mean (SD) change from baseline in FVC: tetomilast 50 mg QD + inhaled albuterol
Description: Pulmonary function tests were conducted throughout the study to monitor the subjects' respiratory status. Flow volume curves were collected via spirometry. Combivent® (Boehringer Ingleheim Pharmaceuticals, Inc., Ridgefield Conn.), which was used for short-acting rescues as needed throughout the studies described below, was withheld for 6 hours prior to any spirometric testing. Spirometry testing was performed at screening, baseline (Day 0), and at specific times during the treatment period. Each subject could have up to 5 spirometric readings at any study time point. Spirometric readings were performed using equipment from the central provider, Quantum Research, Inc. (Louisville, Colo.). All spirometry readings were recorded and sent to Quantum Research, Inc. for analysis
For the spirometric readings, the best effort was reported as follows. The highest acceptable forced expiratory volume in one second (FEV1) value was selected as the “best” of the given test session. If two or more FEV1 values were tied as highest, the sum of FEV1 and forced vital capacity (FVC) for those efforts was used. If both conditions were equal between the two efforts, the values reported were taken from the effort that occurred first, chronologically, based on date and time of the effort.
This study was a multicenter, randomized, double-blind, placebo-controlled, crossover, multiple dose, outpatient study in 27 patients with COPD. All subjects underwent a 28-day washout from inhaled corticosteroids and/or long-acting bronchodilators and/or continuous oxygen therapy (≧16 hours per day) and a 7-day washout from oral beta2-agonists and/or oral theophylline salts prior to baseline. Randomized subjects received an 8-day administration of oral placebo or tetomilast 50 mg oral dose (2×25 mg tablets) once daily (QD). On study Day 8, four consecutive doses of inhaled albuterol (90 μg albuterol base per puff) were given via a metered dose inhaler (MDI) and holding chamber (Ventolin®, GlaxoSmithKline, Research Triangle Park, N.C.), one dose every 30 minutes over the course of 90 minutes at doses of 90 μg+90 μg+180 μg+360 μg for a total dose of 720 μg (albuterol base) or 8 puffs.
Subjects entered a 7-day washout period (study days 9 through 15) and were then crossed over to the alternate treatment arm (placebo or tetomilast 50 mg oral dose). On study [0105] Day 23, the inhaled albuterol multiple dosing was repeated.
On Days 1-6 and 17-21, subjects were instructed to take their oral study medication (placebo or tetomilast 50 mg) QD with 8 ounces of water immediately before breakfast. Subjects assigned to the placebo arm received two placebo tablets QD. On Days 7, 8, 16, 22, and 23, subjects took their oral medication (placebo or tetomilast 50 mg) at the clinic in the presence of the study staff.
Combivent® inhalation aerosol use was allowed for short-acting rescue as needed throughout the study except on study days where PK samples were collected, on days when the multiple doses of inhaled albuterol were administered in the clinic, and/or on days when spirometry testing was performed. On all study days where PK samples were collected, Combivent® was withheld 6 hours prior to the PK draw. Additionally, on study Days 8 and 23 (when the multiple doses of inhaled albuterol were administered in the clinic), Combivent® was withheld 6 hours prior to PK assessment and throughout the duration of the clinic visit. Combivent® was withheld for six hours prior to spirometry testing. The recommended dose of Combivent® Inhalation Aerosol is two inhalations four times a day. In this study, subjects were permitted to take additional inhalations as required; however, the total number of inhalations was not to exceed 12 in 24 hours. Subjects were to “test-spray” three times before using for the first time and in cases where the aerosol had not been used for more than 24 hours. […]

SMILES: CCOc1ccc(-c2nc(-c3cccc(C(=O)O)n3)cs2)cc1OCC [Tetomilast, 2-(3,4-diethoxyphenyl)-4-(2-carboxy-6-pyridyl)thiazole]
- Estimated Treatment Effect, change from baseline in FEV1 (tetomilast versus placebo) (Day 8/23, 5 min postdose): 0.02 L
- Estimated Treatment Effect, change from baseline in FVC (tetomilast versus placebo) (Day 8/23, 5 min postdose): 0.06 L
- LS Mean change from baseline in FEV1 (repeated measures ANOVA) (Day 8/23, 5 min postdose): 0.19 L
- LS Mean change from baseline in FVC (repeated measures ANOVA) (Day 8/23, 5 min postdose): 0.31 L
- Mean (SD) change from baseline in FEV1 (Day 8/23, 5 min postdose): 0.19 (0.19) L
- Mean (SD) change from baseline in FVC (Day 8/23, 5 min postdose): 0.30 (0.28) L
- Estimated Treatment Effect, change from baseline in FEV1 (tetomilast versus placebo) (Day 8/23, 25 min postdose): 0.06 L
- Estimated Treatment Effect, change from baseline in FVC (tetomilast versus placebo) (Day 8/23, 25 min postdose): 0.11 L
- LS Mean change from baseline in FEV1 (repeated measures ANOVA) (Day 8/23, 25 min postdose): 0.21 L
- LS Mean change from baseline in FVC (repeated measures ANOVA) (Day 8/23, 25 min postdose): 0.31 L
- Mean (SD) change from baseline in FEV1 (Day 8/23, 25 min postdose): 0.21 (0.20) L
- Mean (SD) change from baseline in FVC (Day 8/23, 25 min postdose): 0.31 (0.38) L
- Estimated Treatment Effect, change from baseline in FEV1 (tetomilast versus placebo) (Day 8/23, 35 min postdose): 0.05 L
- Estimated Treatment Effect, change from baseline in FVC (tetomilast versus placebo) (Day 8/23, 35 min postdose): 0.09 L
- LS Mean change from baseline in FEV1 (repeated measures ANOVA) (Day 8/23, 35 min postdose): 0.26 L
- LS Mean change from baseline in FVC (repeated measures ANOVA) (Day 8/23, 35 min postdose): 0.41 L
- Mean (SD) change from baseline in FEV1 (Day 8/23, 35 min postdose): 0.26 (0.18) L
- Mean (SD) change from baseline in FVC (Day 8/23, 35 min postdose): 0.41 (0.34) L
- Estimated Treatment Effect, change from baseline in FEV1 (tetomilast versus placebo) (Day 8/23, 55 min postdose): 0.08 L
- Estimated Treatment Effect, change from baseline in FVC (tetomilast versus placebo) (Day 8/23, 55 min postdose): 0.15 L
- LS Mean change from baseline in FEV1 (repeated measures ANOVA) (Day 8/23, 55 min postdose): 0.28 L
- LS Mean change from baseline in FVC (repeated measures ANOVA) (Day 8/23, 55 min postdose): 0.39 L
- Mean (SD) change from baseline in FEV1 (Day 8/23, 55 min postdose): 0.28 (0.19) L
- Mean (SD) change from baseline in FVC (Day 8/23, 55 min postdose): 0.38 (0.31) L
- Estimated Treatment Effect, change from baseline in FEV1 (tetomilast versus placebo) (Day 8/23, 65 min postdose): 0.08 L
- Estimated Treatment Effect, change from baseline in FVC (tetomilast versus placebo) (Day 8/23, 65 min postdose): 0.18 L
- LS Mean change from baseline in FEV1 (repeated measures ANOVA) (Day 8/23, 65 min postdose): 0.32 L
- LS Mean change from baseline in FVC (repeated measures ANOVA) (Day 8/23, 65 min postdose): 0.51 L
- Mean (SD) change from baseline in FEV1 (Day 8/23, 65 min postdose): 0.32 (0.19) L
- Mean (SD) change from baseline in FVC (Day 8/23, 65 min postdose): 0.52 (0.37) L
- Estimated Treatment Effect, change from baseline in FEV1 (tetomilast versus placebo) (Day 8/23, 85 min postdose): 0.07 L
- Estimated Treatment Effect, change from baseline in FVC (tetomilast versus placebo) (Day 8/23, 85 min postdose): 0.13 L
- LS Mean change from baseline in FEV1 (repeated measures ANOVA) (Day 8/23, 85 min postdose): 0.33 L
- LS Mean change from baseline in FVC (repeated measures ANOVA) (Day 8/23, 85 min postdose): 0.48 L
- Mean (SD) change from baseline in FEV1 (Day 8/23, 85 min postdose): 0.33 (0.19) L
- Mean (SD) change from baseline in FVC (Day 8/23, 85 min postdose): 0.47 (0.37) L
- Estimated Treatment Effect, change from baseline in FEV1 (tetomilast versus placebo) (Day 8/23, 95 min postdose): 0.07 L
- Estimated Treatment Effect, change from baseline in FVC (tetomilast versus placebo) (Day 8/23, 95 min postdose): 0.19 L
- LS Mean change from baseline in FEV1 (repeated measures ANOVA) (Day 8/23, 95 min postdose): 0.36 L
- LS Mean change from baseline in FVC (repeated measures ANOVA) (Day 8/23, 95 min postdose): 0.55 L
- Mean (SD) change from baseline in FEV1 (Day 8/23, 95 min postdose): 0.36 (0.19) L
- Mean (SD) change from baseline in FVC (Day 8/23, 95 min postdose): 0.55 (0.40) L
- Estimated Treatment Effect, change from baseline in FEV1 (tetomilast versus placebo) (Day 8/23, 115 min postdose): 0.07 L
- Estimated Treatment Effect, change from baseline in FVC (tetomilast versus placebo) (Day 8/23, 115 min postdose): 0.18 L
- LS Mean change from baseline in FEV1 (repeated measures ANOVA) (Day 8/23, 115 min postdose): 0.35 L
- LS Mean change from baseline in FVC (repeated measures ANOVA) (Day 8/23, 115 min postdose): 0.54 L
- Mean (SD) change from baseline in FEV1 (Day 8/23, 115 min postdose): 0.35 (0.18) L
- Mean (SD) change from baseline in FVC (Day 8/23, 115 min postdose): 0.53 (0.44) L
- Estimated Treatment Effect, change from baseline in FEV1 (tetomilast versus placebo) (Day 8/23, 175 min postdose): 0.09 L
- Estimated Treatment Effect, change from baseline in FVC (tetomilast versus placebo) (Day 8/23, 175 min postdose): 0.15 L
- LS Mean change from baseline in FEV1 (repeated measures ANOVA) (Day 8/23, 175 min postdose): 0.36 L
- LS Mean change from baseline in FVC (repeated measures ANOVA) (Day 8/23, 175 min postdose): 0.53 L
- Mean (SD) change from baseline in FEV1 (Day 8/23, 175 min postdose): 0.36 (0.21) L
- Mean (SD) change from baseline in FVC (Day 8/23, 175 min postdose): 0.52 (0.36) L
- Estimated Treatment Effect, change from baseline in FEV1 (tetomilast versus placebo) (Day 8/23, 235 min postdose): 0.07 L
- Estimated Treatment Effect, change from baseline in FVC (tetomilast versus placebo) (Day 8/23, 235 min postdose): 0.09 L
- LS Mean change from baseline in FEV1 (repeated measures ANOVA) (Day 8/23, 235 min postdose): 0.34 L
- LS Mean change from baseline in FVC (repeated measures ANOVA) (Day 8/23, 235 min postdose): 0.42 L
- Mean (SD) change from baseline in FEV1 (Day 8/23, 235 min postdose): 0.34 (0.25) L
- Mean (SD) change from baseline in FVC (Day 8/23, 235 min postdose): 0.42 (0.48) L
- Estimated Treatment Effect, change from baseline in FEV1 (tetomilast versus placebo) (Day 8/23, 295 min postdose): 0.05 L
- Estimated Treatment Effect, change from baseline in FVC (tetomilast versus placebo) (Day 8/23, 295 min postdose): 0.19 L
- LS Mean change from baseline in FEV1 (repeated measures ANOVA) (Day 8/23, 295 min postdose): 0.25 L
- LS Mean change from baseline in FVC (repeated measures ANOVA) (Day 8/23, 295 min postdose): 0.38 L
- Mean (SD) change from baseline in FEV1 (Day 8/23, 295 min postdose): 0.25 (0.29) L
- Mean (SD) change from baseline in FVC (Day 8/23, 295 min postdose): 0.37 (0.49) L
- Estimated Treatment Effect, change from baseline in FEV1 (tetomilast versus placebo) (Day 8/23, 355 min postdose): 0.13 L
- Estimated Treatment Effect, change from baseline in FVC (tetomilast versus placebo) (Day 8/23, 355 min postdose): 0.24 L
- LS Mean change from baseline in FEV1 (repeated measures ANOVA) (Day 8/23, 355 min postdose): 0.25 L
- LS Mean change from baseline in FVC (repeated measures ANOVA) (Day 8/23, 355 min postdose): 0.34 L
- Mean (SD) change from baseline in FEV1 (Day 8/23, 355 min postdose): 0.25 (0.24) L
- Mean (SD) change from baseline in FVC (Day 8/23, 355 min postdose): 0.34 (0.39) L
- effect on inhaled albuterol response (FEV1, FVC), exploratory repeated measures analysis (inhaled albuterol combined with tetomilast versus inhaled albuterol alone, Day 8/23): possible potentiation of the effect of inhaled albuterol
- FEV1 steady-state (predose) baseline value, Mean (SD) (predose Day 8/23, on tetomilast 50 mg QD, prior to inhaled albuterol): 1.40 (0.61) L
